Reference: patent US20240024350A1, “ANTI-CANCER COMPOSITION CONTAINING AURANOFIN AND MERCAPTO COMPOUND AND USE THEREOF” (SUN YAT-SEN UNIVERSITY, priority 2020, published 2024)

What was measured:
[1] = system: HCT116 human colon cancer cells; assay: MTT colorimetric proliferation / cell survival assay, HCT116; settings: for Cell survival rate (%): compound alone, others not given; for Cell survival rate (%) / Cell survival rate after addition of 10 μM auranofin (%): with 30% FBS, 50 μM for TGTA, β-mercaptoethanol, mercaptoethylamine, DEDT; for Cell survival rate after addition of 10 μM auranofin (%): compound plus 10 μM auranofin, listed as Auranofin = auranofin alone
[2] = system: HepG-2 human liver cancer cells; assay: MTT colorimetric proliferation / cell survival assay, HepG-2; type: cell-based; settings: Liver cancer; TGTA 50 μM
Description: (§1) A flask with the cancer cells required for the experiment, with an original culture solution discarded, was washed for three times with 2 mL of PBS, 1 mL of pancreatin was added for digestion for 30 s, and 2 mL of a medium was added to terminate the digestion. The cells were transferred to a centrifuge tube and centrifuged at 1000 rpm for 3 min, the supernatant was discarded, and 2 mL of a medium was added and blew 10 times to be mixed uniformly. 10 μL of a cell suspension was taken for cell counting, and spread on a 96-well plate, with 5000 cells per well and 3 duplications for each compound, and then the number of cells and cell wells was calculated. The amount of required cell suspension and the number of cells for medium dilution were calculated by cell counting. 100 μL of medium was plated with 5000 cells per well, pipetted and mixed uniformly, and the cells were inoculated using a volley, placed in an incubator for culture, and marked.
(§2) (2) The cells cultured in step (1) was taken, and discarded with the original medium. Auranofin mother liquor was diluted to a diluent with final concentrations of 0, 0.78125, 1.5625, 3.125, 6.25, 12.5, 25, 50 and 100 μM, and mixed uniformly. A volley (using 3 wells) was used to draw 100 μL of dilution per well, a 96-well plate was tilted, diluents with each concentration were added in sequence to the corresponding 3 marked wells carefully to prevent poking the cells, blown and sucked about 3 times to be mixed uniformly, marked, shaken for 3 times, and put into a CO2 incubator for culture. The above steps were repeated for each auranofin diluent.
(§3) After auranofin was added for culture for 1 hour, the mother liquor of the mercapto compound was diluted into […] and mixed uniformly. A volley (using 3 wells) was used to suck 20 μL of diluent per well, the 96-well plate was tilted, the diluents of different mercapto compounds were added in sequence to the corresponding 3 marked wells carefully to prevent poking the cells, blown and sucked about 3 times to be mixed uniformly, and put back to the incubator to continue culture.
(§4) After different mercapto compounds were added to cells for 24 h, 20 μL of MTT (with a concentration of 5 mg/mL in PBS) per well was added to the 96-well plate by a volley; and incubation was carried out at 37° C. for 4 h. At the end of incubation, the MTT mixture was sucked out, and DMSO was added at 130 μL/well using a volley.
(§5) According to the results of Table 1-2, the killing effect of auranofin in combination with various compounds (with 30% FBS) on HCT116 human colon cancer cells and the killing effect of the auranofin-TGTA (50 μM) in combination with other cancer cells (lung cancer, colon cancer, breast cancer, liver cancer, cervical cancer and gastric cancer cells) were further detected by using the same method as the above.

[3] = system: A549 human lung cancer cells; assay: MTT colorimetric proliferation / cell survival assay, A549; type: cell-based; settings: Lung cancer; TGTA 50 μM
Description: as §1, §2, §3, §4, §5

[4] = system: MCF-7 human breast cell cancer cells; assay: MTT colorimetric proliferation / cell survival assay, MCF-7; type: cell-based; settings: breast cancer; TGTA 50 μM
Description: as §1, §2, §3, §4, §5

[5] = system: PC9 human lung cancer cells; assay: MTT cell survival assay, PC9; type: cell-based; settings: TGTA 50 μM
Description: as §1, with “marked. […]” for “marked.”
as §5

[6] = system: PCGR lung cancer cells; assay: MTT cell survival assay, PCGR; type: cell-based; settings: TGTA 50 μM
Description: as §1, with “marked. […]” for “marked.”
as §5

[7] = system: Hela human cervical cancer cells; assay: MTT cell survival assay, Hela; type: cell-based; settings: TGTA 50 μM
Description: as §1, with “marked. […]” for “marked.”
as §5

[8] = system: MGC803 human gastric cancer cells; assay: MTT cell survival assay, MGC803; type: cell-based; settings: TGTA 50 μM
Description: as §1, with “marked. […]” for “marked.”
as §5

[9] = system: TrxR; assay: Intracellular TrxR activity in HepG2 cells (DTNB reduction); type: cell-based, human; settings: mercapto compound alone 200 μM, 30% FBS
Description: HepG2 cells were used as a test subject.
The cells were inoculated into a 6-well plate at 2×10^5 cell/well and incubated for 24 h.
After the incubation, the cell culture medium was replaced with 30% FBS to simulate the high concentration mercapto environment under the normal physiological condition, and used as a control (without adding any reagents). The experimental group was added with 0.5 μM of auranofin for incubation at 37° C. for 30 min, and then added with the mercapto compound (DEDT, β-mercaptoethanol or mercaptoethylamine) for incubation for 30 min (final concentration of DMSO in the system was ≤1%). The incubated cells were washed for 3 times with PBS, added with 100 μL of icy lysis buffer (containing 50 mM of phosphate buffer with pH 7.4, 1 mM EDTA, and 0.10% Triton-X 100), and then lysed on ice for 5 min to collect the cell lysate.
100 μL of buffer (containing 50 mM of potassium phosphate with pH 7.4, 1 mM EDTA, and 0.2 mM NADPH) was added to the collected cell lysate (10 μg protein), 5,5′-dithiobis (2-nitrobenzoic acid) (DTNB, with a final concentration of 3 mM) was added to initiate a reaction, and the activity of TrxR was obtained on the basis of the increased OD value in 10 minutes (OD detection wavelength was 410 nm). Auranofin alone was the positive control sample, and the blank group was the negative control.

Row | Structure (SMILES) | Cell survival rate (%) [1] [%] | Cell survival rate after addition of 10 μM auranofin (%) [1] [%] | Activity of TrxR [9] [%] | other results
1 | CCCc1cc(=O)[nH]c(=S)[nH]1 [Propylthiouracil] | 101 ± 6 | 76 ± 9 | – | –
2 | [Na+].[Na+].[Na+].[O-]P([O-])([O-])=S [Sodium thiophosphate hydrate] | 99 ± 8 | 79 ± 4 | – | –
3 | CC(=O)OC[C@H]1O[C@@H](S)[C@H](OC(C)=O)[C@@H](OC(C)=O)[C@@H]1OC(C)=O [TGTA, 1-thio-β-D-glucose tetraacetate] | 97 ± 5 | 18 ± 2 | – | Cell survival rate (%) HepG2 [2]: 104 ± 4%; Cell survival rate (%) A549 [3]: 104 ± 6%; Cell survival rate (%) MCF-7 [4]: 99 ± 3%; Cell survival rate (%) PC9 [5]: 104 ± 2%; Cell survival rate (%) PCGR [6]: 101 ± 3%; Cell survival rate (%) Hela [7]: 87 ± 6%; Cell survival rate (%) MGC803 [8]: 104 ± 9%; Cell survival rate (%) HCT116 ([1]; colon cancer, TGTA 50 μM): 97 ± 5%
4 | NCCS [mercaptoethylamine, mercaptoethanamine] | 105 ± 7 | 85 ± 3 | 118.2 | –
5 | O=S([O-])([O-])=S.[Na+].[Na+] [sodium thiosulfate] | 105 ± 5 | 84 ± 8 | – | –
6 | OCCS [β-mercaptoethanol] | 96 ± 15 | 55 ± 4 | 127.3 | –
